Literature values, collected in patent EP3085364A1, “PHARMACEUTICAL COMBINED PREPARATION CONTAINING HMG-COA REDUCTASE INHIBITOR AND CHOLESTEROL ABSORPTION INHIBITOR” (Alvogen Korea Co., Ltd., priority 2013, dated 2015).
Read-outs that look alike come from different tables or passages of the source.

Assays:
[1] = room temperature

| Compound | stability [1] | solubility in organic solvents (ethanol, methanol, or acetone) | solubility in water | solubility in organic solvents (N,N-dimethylformamide, acetone, or acetonitrile) |
| --- | --- | --- | --- | --- |
| O=C1[C@H](CC[C@H](O)c2ccc(F)cc2)[C@@H](c2ccc(O)cc2)N1c1ccc(F)cc1 [Ezetimibe, 1-(4-fluorophenyl)-(3R)-[3-(4-fluorophenyl)-(3S)-hydroxypropyl]-(4S)-(4-hydroxyphenyl)-2-azetidinone] | stable | freely to very soluble | practically insoluble | – |
| CC(C)c1nc(N(C)S(C)(=O)=O)nc(-c2ccc(F)cc2)c1/C=C/[C@@H](O)C[C@@H](O)CC(=O)O [Rosuvastatin calcium, (E)-7-[4-(4-fluorophenyl)-6-isopropyl-2-[methyl(methylsulfonyl)amino]pyrimidin-5-yl]-(3R,5S)-3,5-dihydroxyhept-6-enic acid] | – | – | sparingly soluble | soluble |
